Broadly, the pIC50 is the negative decadic logarithm of the IC50, by convention in mol/L.

pIC50: −log10 of the molar value.

HSD17B13, sequence (Q7Z5P4 other isoform, or with tags, fused parts or gaps): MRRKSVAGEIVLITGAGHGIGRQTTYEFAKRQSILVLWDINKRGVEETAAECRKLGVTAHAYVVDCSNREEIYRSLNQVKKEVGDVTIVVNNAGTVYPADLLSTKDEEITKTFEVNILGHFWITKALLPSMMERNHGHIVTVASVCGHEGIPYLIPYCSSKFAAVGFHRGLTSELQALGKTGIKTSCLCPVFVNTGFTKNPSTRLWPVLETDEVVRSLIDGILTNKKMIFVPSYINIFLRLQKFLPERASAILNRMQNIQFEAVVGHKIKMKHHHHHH

The test addresses HSD17B13 (Homo sapiens (Human), UniProt Q7Z5P4). Nature of the test: HSD17B13 enzymatic inhibition assay (150 nM or 50 nM HSD17B13). The class given is biochemical. The following applies: 50 nM HSD17B13; read-out: Inhibition of 50 nM of HSD17B13 IC50.
With `Cc1ccc2c(c1)C(NC(=O)c1ccc(C(F)(F)F)[nH]c1=O)CCO2` (stereo not shown) [Compound 233, N-(6-methylchroman-4-yl)-2-oxo-6-(trifluoromethyl)-1,2-dihydropyridine-3-carboxamide], the negative-log IC50 (pIC50) was 5.88.

In the case of `Cc1ccc2c(c1)C(NC(=O)c1ccc(C(F)(F)F)[nH]c1=O)CCS2` (stereo not shown) [Compound 236, N-(6-methylthiochroman-4-yl)-2-oxo-6-(trifluoromethyl)-1,2-dihydropyridine-3-carboxamide], the pIC50 was 6.13.

As for `Cc1ccc2c(c1)C(NC(=O)c1ccc(C(F)(F)F)[nH]c1=O)CC2` (stereo not shown) [Compound 237, N-(6-methyl-2,3-dihydro-1H-inden-1-yl)-2-oxo-6-(trifluoromethyl)-1,2-dihydropyridine-3-carboxamide], the pIC50 is 6.31.

As for `Cc1ccc2c(c1)CCC2NC(=O)c1ccc(C(F)(F)F)[nH]c1=O` (stereo not shown) [Compound 238, N-(5-methyl-2,3-dihydro-1H-inden-1-yl)-2-oxo-6-(trifluoromethyl)-1,2-dihydropyridine-3-carboxamide], the negative logarithm of the IC50 (pIC50) was 6.17.

`COc1ccc2c(c1)Oc1cc(OC)ccc1C2NC(=O)c1cc(-c2ccccc2)c(C(F)(F)F)[nH]c1=O` [Compound 239, N-(3,6-dimethoxy-9H-xanthen-9-yl)-2-oxo-5-phenyl-6-(trifluoromethyl)-1,2-dihydropyridine-3-carboxamide]: the negative logarithm of the IC50 (pIC50) is 7.00.

As for `COc1ccc2c(c1)Oc1cc(OC)ccc1C2NC(=O)c1cc(C)c(C(F)(F)F)[nH]c1=O` [Compound 240, N-(3,6-dimethoxy-9H-xanthen-9-yl)-5-methyl-2-oxo-6-(trifluoromethyl)-1,2-dihydropyridine-3-carboxamide], the pIC50 is 6.96.

Turning to `COc1ccc2c(c1)Sc1ccccc1C2NC(=O)c1ccc(C(F)(F)F)[nH]c1=O` (stereo not shown) [Compound 242, N-(3-methoxy-9H-thioxanthen-9-yl)-2-oxo-6-(trifluoromethyl)-1,2-dihydropyridine-3-carboxamide], the negative-log IC50 (pIC50) is 7.15.

Consider `COc1ccccc1C(NC(=O)c1ccc(C(F)(F)F)[nH]c1=O)c1cccc(C)c1` (stereo not shown) [Compound 243, N-((2-methoxyphenyl)(m-tolyl)methyl)-2-oxo-6-(trifluoromethyl)-1,2-dihydropyridine-3-carboxamide], for which the negative logarithm of the IC50 (pIC50) was 5.67.

In the case of `COc1ccccc1C(NC(=O)c1ccc(C(F)(F)F)[nH]c1=O)c1ccc(C)cc1` (stereo not shown) [Compound 244, N-((2-methoxyphenyl)(p-tolyl)methyl)-2-oxo-6-(trifluoromethyl)-1,2-dihydropyridine-3-carboxamide], the pIC50 was 6.54.

Regarding `CSc1ccccc1C(NC(=O)c1ccc(C(F)(F)F)[nH]c1=O)c1cccc(C)c1` (stereo not shown) [Compound 245, N-((2-(methylthio)phenyl)(m-tolyl)methyl)-2-oxo-6-(trifluoromethyl)-1,2-dihydropyridine-3-carboxamide], the pIC50 was 5.97.

For `CSc1ccccc1C(NC(=O)c1ccc(C(F)(F)F)[nH]c1=O)c1ccc(C)cc1` (stereo not shown) [Compound 246, N-((2-(methylthio)phenyl)(p-tolyl)methyl)-2-oxo-6-(trifluoromethyl)-1,2-dihydropyridine-3-carboxamide], the pIC50 is 6.52.

Regarding `CSc1c(C)cccc1C(NC(=O)c1ccc(C(F)(F)F)[nH]c1=O)c1ccccc1` (stereo not shown) [Compound 247, N-((3-methyl-2-(methylthio)phenyl)(phenyl)methyl)-2-oxo-6-(trifluoromethyl)-1,2-dihydropyridine-3-carboxamide], the pIC50 was 6.03.

Consider `Cc1ccc2c(c1)C(NC(=O)c1ccc(C(F)(F)F)[nH]c1=O)c1ccccc1S2` (stereo not shown) [Compound 248, N-(2-methyl-9H-thioxanthen-9-yl)-2-oxo-6-(trifluoromethyl)-1,2-dihydropyridine-3-carboxamide], for which the pIC50 was 6.52.

Regarding `O=C(NC1c2ccccc2Sc2ccc(Cl)cc21)c1ccc(C(F)(F)F)[nH]c1=O` (stereo not shown) [Compound 249, N-(2-chloro-9H-thioxanthen-9-yl)-2-oxo-6-(trifluoromethyl)-1,2-dihydropyridine-3-carboxamide], the negative logarithm of the IC50 (pIC50) was 6.41.

On to `O=C(NC1c2ccc(Cl)cc2Sc2cc(Cl)ccc21)c1ccc(C(F)(F)F)[nH]c1=O` [Compound 250, N-(3,6-dichloro-9H-thioxanthen-9-yl)-2-oxo-6-(trifluoromethyl)-1,2-dihydropyridine-3-carboxamide], for which the negative logarithm of the IC50 (pIC50) was 7.22.

Regarding `O=C(NC1c2ccc(Cl)cc2Sc2cccc(Cl)c21)c1ccc(C(F)(F)F)[nH]c1=O` (stereo not shown) [Compound 251, N-(1,6-dichloro-9H-thioxanthen-9-yl)-2-oxo-6-(trifluoromethyl)-1,2-dihydropyridine-3-carboxamide], the pIC50 is 6.19.

Turning to `Cc1ccc2c(c1)Sc1cccc(C)c1C2NC(=O)c1ccc(C(F)(F)F)[nH]c1=O` (stereo not shown) [Compound 253, N-(1,6-dimethyl-9H-thioxanthen-9-yl)-2-oxo-6-(trifluoromethyl)-1,2-dihydropyridine-3-carboxamide], the pIC50 is 5.37.

Consider `O=C(NC1c2ccc(Cl)cc2Oc2cccc(Cl)c21)c1ccc[nH]c1=O` (stereo not shown) [Compound 254, N-(1,6-dichloro-9H-xanthen-9-yl)-2-oxo-1,2-dihydropyridine-3-carboxamide], for which the pIC50 was below 5.00.

For the compound `O=C(NC1c2ccc(Cl)cc2Oc2cc(Cl)ccc21)c1ccc[nH]c1=O` [Compound 255, N-(3,6-dichloro-9H-xanthen-9-yl)-2-oxo-1,2-dihydropyridine-3-carboxamide], the pIC50 was below 5.00.

`COc1cc(C)cc2c1CCC2NC(=O)c1ccc(C(F)(F)F)[nH]c1=O` (stereo not shown) [Compound 256, N-(4-methoxy-6-methyl-2,3-dihydro-1H-inden-1-yl)-2-oxo-6-(trifluoromethyl)-1,2-dihydropyridine-3-carboxamide]: the pIC50 was below 5.00.

`COc1c(C)ccc2c1CCC2NC(=O)c1ccc(C(F)(F)F)[nH]c1=O` (stereo not shown) [Compound 257, N-(4-methoxy-5-methyl-2,3-dihydro-1H-inden-1-yl)-2-oxo-6-(trifluoromethyl)-1,2-dihydropyridine-3-carboxamide]: the pIC50 is 5.15.

Regarding `Cc1ccc2c(c1)Sc1cc(C)ccc1C2NC(=O)c1cc(OC2CCOCC2)c(C(F)(F)F)[nH]c1=O` [Compound 258, N-(3,6-dimethyl-9H-thioxanthen-9-yl)-2-oxo-5-((tetrahydro-2H-pyran-4-yl)oxy)-6-(trifluoromethyl)-1,2-dihydropyridine-3-carboxamide], the negative logarithm of the IC50 (pIC50) was 8.00.

`COc1ccc2c(c1)Oc1cc(OC)ccc1C2NC(=O)c1cc(OC2CCOCC2)c(C(F)(F)F)[nH]c1=O` [Compound 259, N-(3,6-dimethoxy-9H-xanthen-9-yl)-2-oxo-5-((tetrahydro-2H-pyran-4-yl)oxy)-6-(trifluoromethyl)-1,2-dihydropyridine-3-carboxamide]: the pIC50 was 7.15.

For the compound `O=C(NC1CCCc2c(O)cccc21)c1ccc(SCc2cccc(C(F)(F)F)c2)[nH]c1=O` (stereo not shown) [Compound 261, N-(5-hydroxy-1,2,3,4-tetrahydronaphthalen-1-yl)-2-oxo-6-((3-(trifluoromethyl)benzyl)thio)-1,2-dihydropyridine-3-carboxamide], the pIC50 was 5.16.

With `O=C(N[C@@H]1C[C@H](CCO)Cc2ccccc21)c1ccc(C(F)(F)F)[nH]c1=O` [Compound 262, N-((1R,3R)-3-(2-hydroxyethyl)-1,2,3,4-tetrahydronaphthalen-1-yl)-2-oxo-6-(trifluoromethyl)-1,2-dihydropyridine-3-carboxamide], the pIC50 was 6.01.

Consider `O=C(N[C@@H]1C[C@@H](CCO)Cc2ccccc21)c1ccc(C(F)(F)F)[nH]c1=O` [Compound 263, N-((1R,3S)-3-(2-hydroxyethyl)-1,2,3,4-tetrahydronaphthalen-1-yl)-2-oxo-6-(trifluoromethyl)-1,2-dihydropyridine-3-carboxamide], for which the pIC50 was 5.07.

For `O=C(NC1CC(CO)Cc2ccccc21)c1ccc(C(F)(F)F)[nH]c1=O` (stereo not drawn) [Compound 264, N-(3-(hydroxymethyl)-1,2,3,4-tetrahydronaphthalen-l-yl)-2-oxo-6-(trifluoromethyl)-1,2-dihydropyridine-3-carboxamide], the negative-log IC50 (pIC50) is 5.01.

For the compound `CCC[C@H]1C[C@@H](NC(=O)c2cc(-c3ccccc3)c(C(F)(F)F)[nH]c2=O)c2cc(C)ccc2N1` [Compound 265, N-((2S,4R)-6-methyl-2-propyl-1,2,3,4-tetrahydroquinolin-4-yl)-2-oxo-5-phenyl-6-(trifluoromethyl)-1,2-dihydropyridine-3-carboxamide], the pIC50 was 7.10.

As to `Cc1ccc2c(c1N)CCC2NC(=O)c1ccc(C(F)(F)F)[nH]c1=O` (stereo not shown) [Compound 266, N-(4-amino-5-methyl-2,3-dihydro-1H-inden-1-yl)-2-oxo-6-(trifluoromethyl)-1,2-dihydropyridine-3-carboxamide], the pIC50 is 6.19.

`C=CCc1cc(NC(=O)c2ccc(C(F)(F)F)[nH]c2=O)cc(CC=C)n1` [Compound 267, N-(2,6-diallylpyridin-4-yl)-2-oxo-6-(trifluoromethyl)-1,2-dihydropyridine-3-carboxamide]: the negative logarithm of the IC50 (pIC50) is 5.03.

`CCCc1cc(NC(=O)c2ccc(C(F)(F)F)[nH]c2=O)cc(CCC)n1` [Compound 268, N-(2,6-dipropylpyridin-4-yl)-2-oxo-6-(trifluoromethyl)-1,2-dihydropyridine-3-carboxamide]: the pIC50 was below 5.00.

For the compound `C=CCc1cc(NC(=O)c2ccc(C(F)(F)F)[nH]c2=O)cc(/C=C/C)n1` [Compound 269, (E)-N-(2-allyl-6-(prop-1-en-1-yl)pyridin-4-yl)-2-oxo-6-(trifluoromethyl)-1,2-dihydropyridine-3-carboxamide], the negative-log IC50 (pIC50) is 5.30.

As to `C=CCc1cc(CC=C)cc(NC(=O)c2ccc(C(F)(F)F)[nH]c2=O)c1` [Compound 270, N-(3,5-diallylphenyl)-2-oxo-6-(trifluoromethyl)-1,2-dihydropyridine-3-carboxamide], the pIC50 is 5.86.

On to `Cc1ccc2c(c1)Sc1ccccc1C2NC(=O)c1ccc(C(F)F)[nH]c1=O` (stereo not shown) [Compound 275, 6-(difluoromethyl)-N-(3-methyl-9H-thioxanthen-9-yl)-2-oxo-1,2-dihydropyridine-3-carboxamide], for which the pIC50 is 7.00.
